Values after ≈ are worked out from the molar mass of the structure shown.
Tests used:
HCT116 cells = test: Annexin V-FITC/PI apoptosis flow cytometry, HCT116; format: cell-based, human
Protocol: To analyze the number of cells in early apoptosis, late apoptosis, or necrosis, A549, MiaPaca-2, and HCT-116 cell lines were cultured in 6-well plates with a seeding density of 1 × 10^5 cells per well. These cells were then treated with selected compounds (4, 5, and 8) at their respective IC50 concentrations and incubated for 72 h. Subsequently, a commercially available kit, the FITC: Annexin V Apoptosis Detection Kit I from BD Biosciences Pharmingen in San Jose, CA, USA, was utilized to assess apoptosis. After 72 h the cells were harvested, washed, and labeled with Annexin V-FITC and propidium iodide (PI) following the manufacturer’s protocol (Becton Dickinson), as previously described. The stained cells were analyzed by flow cytometry. The cells were identified as early apoptotic (Annexin V+/PI−) or late apoptotic/necrotic (Annexin V+/PI+).

A549 (lung cancer) = test: MTT assay, A549 cells; format: cell-based, human
Method in brief: (§1)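 Test compounds are added to plated cells (1 × 10^4 per well) for 72 h. Cell viability is calculated as the percentage of MTT reduction compared with cells given medium alone.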

[1] = system: HaCaT (immortalized human keratinocytes); test: MTT assay, HaCaT normal cells; format: cell-based; settings: Homo sapiens, HaCaT; MTT, 72 h, normal cells; read-out: IC50 HaCaT (Table 3)
Method in brief: (§2)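 1 × 10^4 cells/well; 72 h compound exposure; MTT absorbance; % viability vs medium-only control. Media: HCT116 MEM, PC3 RPMI, MDA-MB-231/HaCaT DMEM high glucose, all 10% FBS.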

E. coli ATCC 25922 = test: MIC broth microdilution; format: cell-based; settings: Escherichia coli, ATCC25922; 19 h, 35 °C; read-out: MIC E. coli ATCC 25922
Method in brief: (§3)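 Two-fold serial broth microdilution in Mueller-Hinton II broth, final inoculum adjusted to […]. Compounds dissolved in DMSO, final solvent at most 1%.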

[2] = system: S. epidermidis ATCC 35984; test: MIC broth microdilution; format: cell-based; settings: Staphylococcus epidermidis, ATCC35984; 19 h, 35 °C; read-out: MIC S. epidermidis ATCC 35984
Method in brief: as §3

S. aureus ATCC 29213 = test: MIC broth microdilution; format: cell-based; settings: Staphylococcus aureus, ATCC29213; 19 h, 35 °C; read-out: MIC S. aureus ATCC 29213
Method in brief: as §3

S. aureus NCTC 4163 = test: MIC broth microdilution; format: cell-based; settings: 19 h, 35 °C
Method in brief: as §3

S. aureus ATCC 25923 = test: MIC broth microdilution; format: cell-based; settings: Staphylococcus aureus, ATCC25923; 19 h, 35 °C; read-out: MIC S. aureus ATCC 25923
Method in brief: as §3

S. aureus ATCC 6538 = test: MIC broth microdilution; format: cell-based; settings: Staphylococcus aureus, ATCC6538; 19 h, 35 °C; read-out: MIC S. aureus ATCC 6538
Method in brief: as §3

[3] = system: S. epidermidis ATCC 12228; test: MIC broth microdilution; format: cell-based; settings: Staphylococcus epidermidis, ATCC12228; 19 h, 35 °C; read-out: MIC S. epidermidis ATCC 12228
Method in brief: as §3

P. aeruginosa ATCC 15442 = test: MIC broth microdilution; format: cell-based; settings: Pseudomonas aeruginosa, ATCC15442; 19 h, 35 °C; read-out: MIC P. aeruginosa ATCC 15442
Method in brief: as §3

[4] = system: MiaPaCa-2 (pancreas cancer); test: MTT assay, MiaPaCa-2 cells; format: cell-based, human
Method in brief: as §1

HCT116 (colon cancer) = test: MTT assay, HCT116 cells; format: cell-based, human
Method in brief: as §2

[5] = representative dot plot, Figure 4C, IC50, 72 h
[6] = SI = IC50 for normal cell line (HaCaT)/IC50 cancer cell line

IC50 (A549 (lung cancer); Homo sapiens, A549, MTT, 72 h, mean SD, read-out: IC50 A549): 16 ± 4.2 µM | MIC (E. coli ATCC 25922): > 256 µg/mL | MIC [2]: 256 µg/mL (≈ 624 µM) | MIC (S. aureus ATCC 29213): 128 µg/mL (≈ 312 µM) | MIC S. aureus NCTC 4163 (S. aureus NCTC 4163): 8 µg/mL (≈ 19.5 µM) | MIC (S. aureus NCTC 4163; Staphylococcus aureus, NCTC4163, read-out: MIC S. aureus NCTC 4163): 8 µg/mL (≈ 19.5 µM) | MIC (S. aureus ATCC 25923): 128 µg/mL (≈ 312 µM) | MIC (S. aureus ATCC 6538): 128 µg/mL (≈ 312 µM) | MIC [3]: 256 µg/mL (≈ 624 µM) | MIC (P. aeruginosa ATCC 15442): > 256 µg/mL | IC50 ([4]; Homo sapiens, MIA PaCa-2, MTT, 72 h, read-out: IC50 MiaPaCa-2): 24.3 ± 3.5 µM | IC50 (HCT116 (colon cancer); Homo sapiens, HCT-116, MTT, 72 h, read-out: IC50 HCT116): 7.7 ± 1.2 µM
SMILES: CN1CCCCC1CCN1c2cc(Cl)ccc2Sc2cc3ccccc3nc21 (stereo not drawn) [Compound 11, 8-Chloro-6-(2-(1-methylpiperidin-2-yl)ethyl)-quino[3,2-b]benzo[1,4]thiazine]
cells in late apoptosis/necrosis, HCT116 (HCT116 cells; compound at IC50, 72 h): 15.64% | HCT-116: Alive (HCT116 cells; [5]): 80.61% | HCT-116: Early Apoptotic (HCT116 cells; [5]): 4.12% | HCT-116: Necrotic (HCT116 cells; [5]): 9.25% | HCT-116: Necrotic/Late Apoptotic (HCT116 cells; [5]): 6.03% | SI A549 (A549 (lung cancer); [6]): 1 | IC50 [1]: 12.7 ± 1.9 µM | SI MiaPaCa-2 [4, 6]: 0.5 | SI HCT116 (HCT116 (colon cancer); [6]): 1.6
